Measured values reported in patent US20250109139A1, “TRICYCLIC COMPOUND, AND PREPARATION METHOD THEREFOR AND USE THEREOF” (SHANGHAITECH UNIVERSITY, priority 2022, published 2025).
Where two headings read alike, the source gives them in different places. One block for each molecule: values may come before it.

Columns and labels:
[1] = molecular target: T1, dopamine D2 receptors (Homo sapiens (Human), UniProt P14416); assay: Dopamine D2 receptor Gαi1 BRET (G protein trimer dissociation); assay type: cell-based; settings: for Emax: relative to endogenous ligand dopamine, read-out: Gαi1 BRET Emax % ± SEM
T1 sequence (P14416 whole entry): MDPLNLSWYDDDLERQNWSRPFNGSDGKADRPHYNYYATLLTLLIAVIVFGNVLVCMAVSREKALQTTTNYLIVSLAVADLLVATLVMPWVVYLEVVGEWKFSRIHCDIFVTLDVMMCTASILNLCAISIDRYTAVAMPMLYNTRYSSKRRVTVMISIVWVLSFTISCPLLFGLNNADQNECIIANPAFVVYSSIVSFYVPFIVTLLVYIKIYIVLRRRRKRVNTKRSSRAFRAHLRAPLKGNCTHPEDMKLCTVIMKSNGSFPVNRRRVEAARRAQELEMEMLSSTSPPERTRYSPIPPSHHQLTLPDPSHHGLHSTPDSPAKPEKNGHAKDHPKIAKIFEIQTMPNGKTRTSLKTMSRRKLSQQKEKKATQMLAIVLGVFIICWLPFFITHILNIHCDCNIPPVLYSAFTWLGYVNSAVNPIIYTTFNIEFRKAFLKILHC
Procedure: (§1) To examine the downstream G-protein signaling pathway mediated by dopamine D2 receptors, on the first day, a 6 cm culture dish was used for transfection with 1 μg of dopamine D2 receptors, 1 μg of Gαi1 containing C-terminal seaweed luciferase (Gαi1-Rluc), 1 μg of Gβ3, 1 μg of Gγ9 containing C-terminal green fluorescent protein (Gγ9-GFP) mixed with 16 μL of PEI. At the same time, in order to examine the downstream β-arrestin2 signaling pathway mediated by dopamine D2 receptors, on the first day, a 6 cm culture dish was used for transfection with […] of dopamine D2 receptors containing C-terminal seaweed luciferase (D2-Rluc), […] of G protein-coupled receptor kinase 2 (GRK2), […] of β-arrestin2 containing N-terminal green fluorescent protein (GFP2-ARRB2) mixed with 14 μL of PEI. The next day, the confluent cells of a 6 cm culture dish were digested and reseeded into a 96-well plate with 100 μL of culture medium added to each well. On the third day, the drugs were added for test. The 96-well plate was taken out from the cell incubator to decant the culture medium, 40 μL of the substrate coelenterazine 400a (final concentration of 5 μM) was added to each well, and then 20 μL of different drugs were added sequentially from left to right to ensure that the final concentration of the drug decreased gradually from bottom to top, with two replicates per treatment. Finally, the prepared samples were loaded on machine for test. The machine readout value reflected the recruitment of β-arrestin2 to the membrane or the dissociation of G protein trimer. The former indicated the degree of activation of the β-arrestin2 signaling pathway downstream of the dopamine D2 receptors, and the latter indicated the degree of activation of the G protein signaling pathway downstream of the dopamine D2 receptors.

[2] = molecular target: T1, dopamine D2 receptors; assay: Dopamine D2 receptor β-arrestin2 BRET (recruitment); assay type: cell-based; settings: for Emax: relative to endogenous ligand dopamine, read-out: β-arrestin2 BRET Emax % ± SEM
Procedure: as §1

[3] = molecular target: T1, dopamine D2 receptors; assay: Dopamine D2 receptor radioligand competition binding assay ([3H]-Methylspiperone); settings: [3H]-Methylspiperone 0.3 to 0.5 nM, 293T membranes
Procedure: The affinity of the compounds of the present disclosure for dopamine D2 receptors was determined by a radioligand competition binding assay.
In the first step, a cell membrane component containing specific dopamine D2 receptors was prepared. A 10 cm culture dish was used for transfection with […] of dopamine D2 receptors and 40 μL of polyethylenimine (PEI hereafter). […] A vacuum pump was used to suck off the culture medium, 3 mL of lysis buffer was added to each culture dish, and the cells were placed in a 4° C. cold room for 10 minutes. After the cells were detached, the cells were transferred to a 15 mL centrifuge tube and centrifuged at 1500 rpm for 5 minutes at 4° C., and the supernatant was discarded. The cell pellet was transferred to a tissue homogenizer, and 3 mL of lysis buffer was added and fully ground until the cells were broken. Then, cell suspension was equally aliquoted into several EP tubes, centrifuged at 12000 rpm for 5 minutes at 4° C., and the supernatant was discarded. The precipitate was the cell membrane component containing the dopamine D2 receptors.
First, a standard binding buffer was added to the cell membrane component containing the dopamine D2 receptors, and the cell membrane was disrupted and resuspended with an electric tissue homogenizer. 30 μL of membrane protein suspension was added to each well of a 96-well plate. Then, 30 μL of different drugs were added to the 96-well plate sequentially from bottom to top to ensure that the final drug concentrations were 10^−5 M, 10^−6 M, 10^−7 M, 10^−8 M, 10^−9 M, and 0 M, with two replicates per treatment. Next, 30 μL of [3H]-Methylspiperone was added to each well of the 96-well plate. The plate was incubated at room temperature in the dark for 2 hours. Detection was conducted. The machine readout value reflected the amount of [3H]-Methylspiperone bound on the membrane, and after further data processing, the affinity Ki values of different compounds for the dopamine D2 receptors were obtained.

[4] = Brain permeability test, single intraperitoneal dose in C57 male mice; assay type: in vivo; settings: intraperitoneal 5 mg/kg
Procedure: Using the same method as that in the pharmacokinetic experiment, 0.030 mL of blood was collected from the orbit of each animal at 0.5 hours, 2.0 hours, and 4.0 hours, and anticoagulated with EDTA-K2. Blood samples were placed on ice after collection, and plasma was separated by centrifugation within 30 minutes (centrifugation conditions: 5000 rpm, 10 minutes, 4° C.). The collected plasma was stored at −80° C. before analysis. […] The homogenate was stored at −80° C. before analysis. Drug concentrations in plasma and brain tissues were analyzed by LC/MS/MS for comparison.

[5] = Pharmacokinetics in SD rats, single dose intragastric and intravenous; assay type: in vivo; settings: male, rat, plasma; for AUC(0-t): read-out: Area under the drug-time curve AUC0-t; for half-life: read-out: Elimination half-life t1/2 (converted); for MRT: read-out: Mean residence time MRT; for Cmax: read-out: Peak drug concentration Cmax
Procedure: Testing of pharmacokinetic properties of compounds administered in a single dose to SD rats by intragastric administration and intravenous injection
After the compound was administered in a single dose to male SD rats, blood samples were collected at different time points. The concentration of the compound in the plasma of the rats was determined by LC-MS/MS and the relevant pharmacokinetic parameters were calculated to investigate the pharmacokinetics of the compound in rats.
Male SD rats were provided by Suzhou JOINN Laboratories Co., Ltd. SD rats were fasted with free access to water for 12 to 14 hours one day before administration, and were fed 4 hours after administration.
For each compound, the […] were divided into two groups: intravenous injection and intragastric administration, with 3 rats in each group. For both intravenous injection (administered at a dose of 3 mg/kg and a concentration of 0.6 mL/kg) and intragastric administration (administered at a dose of 10 mg/kg and a concentration of 1 mL/kg), 5% DMSO+5% Solutol+90% saline was used as the vehicle.
Sample collection: 0.10 mL of blood was collected from the orbit of each animal in IV/PO groups each time at 5 minutes, 15 minutes, 30 minutes, 1 hour, 2 hours, 4 hours, 6 hours, 8 hours, and 24 hours after administration of the test compound, and anticoagulated with EDTA-K2. Blood samples were placed on ice after collection, and plasma was separated by centrifugation within 30 minutes (centrifugation conditions: 5000 rpm, 10 minutes, 4° C.). The collected plasma was stored at −80° C. before analysis.
Data processing: The data acquisition and control system software was Analyst 1.5.1 software (Applied Biosystem). The peak integration method of chromatographic samples was automatic integration; the ratio of the peak area of the sample to the peak area of the internal standard was used as an index for regression with the concentration of the sample. […] Pharmacokinetic parameters were analyzed with a non-compartmental model using WinNonlin Professional v6.3 (Pharsight, USA). Cmax was the measured maximum plasma concentration, the area under the plasma concentration-time curve AUC(0→t) was calculated by the trapezoidal method, and tmax was the time to peak plasma concentration after administration. Experimental data were presented as “Mean±SD” (n≥3) or “Mean” (n=2).

[6] = unit printed only in Cariprazine cell, read-out: Gαi1 BRET EC50
[7] = unit printed only in Cariprazine cell, read-out: β-arrestin2 BRET EC50
[8] = read-out: Gαi1 BRET pEC50 ± SEM (converted)
[9] = read-out: β-arrestin2 BRET pEC50 ± SEM (converted)
[10] = read-out: Affinity pKi ± SEM (converted)
[11] = intravenous injection, dose 10 mg/kg

SMILES: COc1cccc2c3c(oc12)CN(C/C=C/COc1ccc2ccc(=O)[nH]c2c1)CC3 [I-A10, (E)-7-((4-(8-methoxy-3,4-dihydrobenzofuro[2,3-c]pyridin-2(1H)-yl)but-2-en-1-yl)oxy)quinolin-2(1H)-one]
Gαi1 BRET pEC50 ± SEM [1]: (7.21 ± 0.12)
Emax [1]: 27%
EC50 [1, 6]: 61.3 nM
Emax [2]: 107%
EC50 [2, 7]: 4.61 nM
Affinity pKi ± SEM [3]: (6.85 ± 0.19)
Ki ([3]; read-out: Affinity Ki): 139 nM

SMILES: COc1cccc2c3c(oc12)CN(CC[C@H]1CC[C@H](NS(C)(=O)=O)CC1)CC3 [I-A13, N-(trans-4-(2-(8-methoxy-3,4-dihydrobenzofuro[2,3-c]pyridin-2(1H)-yl)ethyl)cyclohexyl)methanesulfonamide]
EC50 [1, 8]: 38.9 nM
Emax [1]: 53%
EC50 [1, 6]: 46.6 nM
EC50 [2, 9]: 0.832 nM
Emax [2]: 81%
EC50 [2, 7]: 4.61 nM
Ki ([3]; read-out: Affinity Ki): 1720 nM
Ki [3, 10]: 1580 nM

SMILES: CC(C)Oc1cccc2c3c(oc12)CN(CC[C@H]1CC[C@H](NC(=O)N(C)C)CC1)CC3 [I-A19, 3-(trans-4-(2-(8-isopropoxy-3,4-dihydrobenzofuro[2,3-c]pyridin-2(1H)-yl)ethyl)cyclohexyl)-1,1-dimethylurea]
EC50 [1, 8]: 10.7 nM
Emax [1]: 40%
EC50 [1, 6]: 10.6 nM
Emax [2]: 21%
EC50 [2, 7]: 8.36 nM
Affinity pKi ± SEM [3]: (6.03 ± 0.07)
Ki ([3]; read-out: Affinity Ki): 930 nM

SMILES: COc1cccc2c3c([nH]c12)CN(CCCCOc1ccc2ccc(=O)[nH]c2c1)CC3 [I-B1, 7-(4-(8-methoxy-1,3,4,9-tetrahydro-2H-pyrido[3,4-b]indol-2-yl)butoxy)quinolin-2(1H)-one]
EC50 [1, 8]: 102 nM
Emax [1]: 22%
EC50 [1, 6]: 233 nM
EC50 [2, 9]: 12 nM
Emax [2]: 50%
EC50 [2, 7]: 13.1 nM
Ki ([3]; read-out: Affinity Ki): 362 nM
Ki [3, 10]: 83.2 nM

Other lines, results leading:

EC50 [1, 8]: 13.2 nM
Emax [1]: 41%
EC50 [1, 6]: 13 nM
Emax [2]: 90%
EC50 [2, 7]: 0.47 nM
Ki ([3]; read-out: Affinity Ki): 282 nM
Ki [3, 10]: 288 nM
SMILES: COc1cccc2c3c([nH]c12)CN(CCCOc1ccc2ccc(=O)[nH]c2c1)CC3 [I-B3, 7-(3-(8-methoxy-1,3,4,9-tetrahydro-2H-pyrido[3,4-b]indol-2-yl)propoxy)quinolin-2(1H)-one]

EC50 [1, 8]: 97.7 nM
Emax [1]: 64%
EC50 [1, 6]: 96.5 nM
Emax [2]: 127%
EC50 [2, 7]: 20.8 nM
Affinity pKi ± SEM [3]: (6.36 ± 0.28)
Ki ([3]; read-out: Affinity Ki): 438 nM
SMILES: COc1cccc2c1cc1n2CCN(C/C=C/COc2ccc3ccc(=O)[nH]c3c2)C1 [I-C5, (E)-7-((4-(9-methoxy-3,4-dihydropyrazino[1,2-a]indol-2(1H)-yl)but-2-en-1-yl)oxy)quinolin-2(1H)-one]

Emax [1]: 97%
EC50 [1, 6]: 123 nM
AUC brain ([4]; brain): 2767 ng·h/mL
Kp at 0.5 h ([4]; male, C57, mouse, brain/plasma, ip, 0.5 h, read-out: 0.5 h ratio (brain/plasma)): 3.05
Kp at 2 h ([4]; male, C57, mouse, brain/plasma, ip, 2.0 h, read-out: 2.0 h ratio (brain/plasma)): 2.67
Kp at 4 h ([4]; male, C57, mouse, brain/plasma, ip, 4.0 h, read-out: 4.0 h ratio (brain/plasma)): 2.24
Kp ([4]; male, C57, mouse, brain/plasma, ip, read-out: AUC ratio (brain/plasma)): 2.71
concentration at 0.5 h ([4]; male, C57, mouse, 0.5 h, brain, read-out: 0.5 h brain concentration): 1030 ± 96 ng/mL
concentration at 0.5 h ([4]; male, C57, mouse, 0.5 h, plasma, read-out: 0.5 h plasma concentration): 336 ± 28 ng/mL
concentration at 2 h ([4]; male, C57, mouse, 2.0 h, brain, read-out: 2.0 h brain concentration): 714 ± 143 ng/mL
concentration at 2 h ([4]; male, C57, mouse, 2.0 h, plasma, read-out: 2.0 h plasma concentration): 267 ± 47 ng/mL
concentration at 4 h ([4]; male, C57, mouse, 4.0 h, brain, read-out: 4.0 h brain concentration): 491 ± 80 ng/mL
concentration at 4 h ([4]; male, C57, mouse, 4.0 h, plasma, read-out: 4.0 h plasma concentration): 219 ± 15 ng/mL
AUC ([4]; male, C57, mouse, ip, plasma): 1020 ng·h/mL
Vd ([5]; intravenous injection, dose 10 mg/kg, read-out: Apparent volume of distribution Vdss): 4.75 ± 0.4 L/kg
AUC(0-t) [5, 11]: 2520 ± 446 ng·h/mL
clearance ([5]; intravenous injection, dose 10 mg/kg, read-out: Clearance CL): 20.1 ± 3.6 mL/min/kg
half-life [5, 11]: 3.67 ± 0.1 h
MRT [5, 11]: 3.98 ± 0.4 h
Cmax [5, 11]: 765 ± 74 ng/mL
AUC(0-t) ([5]; oral administration, 10 mg/kg): 10400 ± 1180 ng·h/mL
bioavailability ([5]; oral administration, 10 mg/kg, read-out: Bioavailability F): 123 ± 14%
half-life ([5]; oral administration, 10 mg/kg): 8.54 ± 2.3 h
MRT ([5]; oral administration, 10 mg/kg): 11.5 ± 4.1 h
Cmax ([5]; oral administration, 10 mg/kg): 1000 ± 195 ng/mL
Tmax ([5]; oral administration, 10 mg/kg, read-out: Time to peak concentration tmax): 2 h
EC50 [2, 9]: 195 nM
Emax [2]: 151%
EC50 [2, 7]: 291 nM
SMILES: COc1cccc2c1cc1n2CCN(CC[C@H]2CC[C@H](NC(=O)N(C)C)CC2)C1 [I-C7, 3-(trans-4-(2-(9-methoxy-3,4-dihydropyrazino[1,2-a]indol-2(1H)-yl)ethyl)cyclohexyl)-1,1-dimethylurea]
